PubChem BioAssay (NCI)
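All cell lines were grown in 96-well plates and treated with compound for 48 hours. TGI marks complete inhibition of growth.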

Assays:
Assay in all cases: DTP human tumour cell line panel, 48 h
[1] = tested on: 786-0 renal
[2] = tested on: A498 renal
[3] = tested on: A549 NSCLC
[4] = tested on: ACHN renal
[5] = tested on: CAKI-1 renal
[6] = tested on: CCRF-CEM leukemia
[7] = tested on: COLO 205 colon
[8] = tested on: DLD-1 colon
[9] = tested on: DMS 114 small cell lung
[10] = tested on: DMS 273 small cell lung
[11] = tested on: EKVX NSCLC
[12] = tested on: HCC-2998 colon
[13] = tested on: HCT-116 colon
[14] = tested on: HCT-15 colon
[15] = tested on: HL-60(TB) leukemia
[16] = tested on: HOP-62 NSCLC
[17] = tested on: HOP-92 NSCLC
[18] = tested on: HT29 colon
[19] = tested on: IGROV1 ovarian
[20] = tested on: K-562 leukemia
[21] = tested on: KM12 colon
[22] = tested on: KM20L2 colon
[23] = tested on: LOX IMVI melanoma
[24] = tested on: LXFL 529 NSCLC
[25] = tested on: M14 melanoma
[26] = tested on: M19-MEL melanoma
[27] = tested on: MALME-3M melanoma
[28] = tested on: MOLT-4 leukemia
[29] = tested on: NCI-H226 lung
[30] = tested on: NCI-H23 lung
[31] = tested on: NCI-H460 lung
[32] = tested on: NCI-H522 lung
[33] = tested on: OVCAR-3 ovarian
[34] = tested on: OVCAR-4 ovarian
[35] = tested on: OVCAR-5 ovarian
[36] = tested on: OVCAR-8 ovarian
[37] = tested on: RPMI-8226 leukemia
[38] = tested on: RXF 393 renal
[39] = tested on: SF-268 CNS
[40] = tested on: SF-295 CNS
[41] = tested on: SF-539 CNS
[42] = tested on: SK-MEL-2 melanoma
[43] = tested on: SK-MEL-28 melanoma
[44] = tested on: SK-MEL-5 melanoma
[45] = tested on: SK-OV-3 ovarian
[46] = tested on: SN12C renal
[47] = tested on: SNB-19 CNS
[48] = tested on: SNB-75 CNS
[49] = tested on: SNB-78 CNS
[50] = tested on: SW-620 colon
[51] = tested on: TK-10 renal
[52] = tested on: U251 CNS
[53] = tested on: UACC-257 melanoma
[54] = tested on: UACC-62 melanoma
[55] = tested on: UO-31 renal
[56] = tested on: BT-549 breast
[57] = tested on: DU-145 prostate
[58] = tested on: HS 578T breast
[59] = tested on: MCF7 breast
[60] = tested on: MDA-MB-231 breast
[61] = tested on: MDA-MB-435
[62] = tested on: MDA-N
[63] = tested on: NCI/ADR-RES ovarian
[64] = tested on: PC-3 prostate
[65] = tested on: SR leukemia
[66] = tested on: T-47D breast
[67] = tested on: XF 498 CNS

For `CCOc1ccc(-c2oc(/C=N/NS(=O)(=O)c3ccc(C)cc3)c([N+](=O)[O-])c2-c2ccc(OCC)cc2)cc1`, the TGI [1] was 29.7 µM, the TGI [2] was 41.4 µM and the TGI [3] was 65.6 µM. It also gave a TGI [4] of 23.7 µM, a TGI [5] of 43.1 µM and a TGI [6] of 8.04 µM. The TGI [7] was 37.2 µM, the TGI [8] was 17.6 µM and the TGI [9] was 12 µM. The TGI [10] was 23 µM, the TGI [11] was 80 µM and the TGI [12] was 31.1 µM. For the same compound, the TGI [13] was 3.92 µM, the TGI [14] was 18.4 µM and the TGI [15] was > 52.9 µM. The TGI [16] was > 64.3 µM, the TGI [17] was 31.5 µM and the TGI [18] was 20.7 µM. For the same compound, the TGI [19] was 32.3 µM, the TGI [20] was > 56.3 µM and the TGI [21] was 25.3 µM. For the same compound, the TGI [22] was 31.9 µM, the TGI [23] was 12.6 µM and the TGI [24] was 26.6 µM. For the same compound, the TGI [25] was 27.7 µM, the TGI [26] was 13.3 µM and the TGI [27] was 37.1 µM. The TGI [28] was > 24.8 µM, the TGI [29] was 28.4 µM and the TGI [30] was 31.4 µM. It also gave a TGI [31] of 29.7 µM, a TGI [32] of 20.6 µM and a TGI [33] of 43.3 µM. The TGI [34] was 25.4 µM, the TGI [35] was 24.1 µM and the TGI [36] was 50 µM. The TGI [37] was 5.12 µM, the TGI [38] was 29.3 µM and the TGI [39] was 50.5 µM. For the same compound, the TGI [40] was 38.4 µM, the TGI [41] was 30.7 µM and the TGI [42] was 44.8 µM. The TGI [43] was 28.3 µM, the TGI [44] was 21.2 µM and the TGI [45] was 42.7 µM. The TGI [46] was 27.5 µM, the TGI [47] was 43.1 µM and the TGI [48] was 35.2 µM. For the same compound, the TGI [49] was 34.6 µM, the TGI [50] was 7.76 µM and the TGI [51] was 70.3 µM. It also gave a TGI [52] of 21.2 µM, a TGI [53] of 45 µM and a TGI [54] of 26 µM. For the same compound, the TGI [55] was 28.7 µM.
In the case of `Cc1ccc(/C=C2\CN(C)CC3C2=NC(=S)NC3c2ccc(C)cc2)cc1` (stereo unspecified), the TGI [1] is reported as > 100 µM, the TGI [2] is reported as > 100 µM and the TGI [3] is reported as > 100 µM. For the same compound, the TGI [4] was > 100 µM, the TGI [56] was > 100 µM and the TGI [5] was > 100 µM. The TGI [6] was 54.5 µM, the TGI [7] was > 71.7 µM and the TGI [57] was > 100 µM. The TGI [11] was > 40.3 µM, the TGI [12] was 33.4 µM and the TGI [13] was > 100 µM. For the same compound, the TGI [14] was > 100 µM, the TGI [15] was > 100 µM and the TGI [16] was > 100 µM. The TGI [17] was > 31.1 µM, the TGI [58] was > 100 µM and the TGI [18] was > 100 µM. The TGI [19] was > 80.1 µM, the TGI [20] was > 100 µM and the TGI [21] was > 100 µM. The TGI [23] was > 100 µM, the TGI [25] was > 100 µM and the TGI [27] was > 100 µM. For the same compound, the TGI [59] was > 100 µM, the TGI [60] was > 100 µM and the TGI [61] was 45.1 µM. For the same compound, the TGI [62] was 80.5 µM, the TGI [28] was 56 µM and the TGI [29] was > 100 µM. The TGI [30] was > 100 µM, the TGI [31] was > 100 µM and the TGI [32] was > 100 µM. For the same compound, the TGI [63] was > 100 µM, the TGI [33] was > 100 µM and the TGI [34] was > 100 µM. The TGI [35] was > 100 µM, the TGI [36] was > 100 µM and the TGI [64] was > 100 µM. For the same compound, the TGI [37] was > 100 µM, the TGI [38] was > 87.1 µM and the TGI [39] was > 100 µM. For the same compound, the TGI [40] was > 100 µM, the TGI [41] was > 100 µM and the TGI [42] was > 100 µM. The TGI [43] was > 100 µM, the TGI [44] was > 100 µM and the TGI [45] was > 100 µM. For the same compound, the TGI [46] was > 100 µM, the TGI [47] was > 100 µM and the TGI [48] was > 100 µM. The TGI [65] was > 100 µM, the TGI [50] was > 100 µM and the TGI [66] was 96.9 µM. The TGI [51] was > 100 µM, the TGI [52] was > 87.4 µM and the TGI [53] was > 100 µM. For the same compound, the TGI [54] was > 100 µM and the TGI [55] was > 100 µM.
In the case of `C[N+](C)=c1nc(N2CCOCC2)ss1`, the TGI [1] is reported as > 100 µM, the TGI [2] is reported as > 100 µM and the TGI [3] is reported as > 100 µM. The TGI [4] was > 100 µM, the TGI [5] was > 100 µM and the TGI [6] was > 100 µM. For the same compound, the TGI [10] was > 100 µM, the TGI [11] was > 100 µM and the TGI [12] was > 100 µM. For the same compound, the TGI [13] was > 100 µM, the TGI [14] was > 100 µM and the TGI [15] was > 100 µM. For the same compound, the TGI [16] was > 100 µM, the TGI [17] was > 100 µM and the TGI [18] was > 100 µM. The TGI [19] was > 100 µM, the TGI [20] was > 100 µM and the TGI [21] was > 100 µM. The TGI [23] was > 100 µM, the TGI [24] was > 100 µM and the TGI [25] was > 100 µM. The TGI [28] was > 100 µM, the TGI [29] was > 100 µM and the TGI [30] was > 100 µM. For the same compound, the TGI [31] was > 100 µM, the TGI [32] was > 100 µM and the TGI [35] was > 100 µM. For the same compound, the TGI [36] was > 100 µM, the TGI [38] was > 100 µM and the TGI [39] was > 100 µM. The TGI [40] was > 100 µM, the TGI [41] was > 100 µM and the TGI [42] was > 100 µM. The TGI [43] was > 100 µM, the TGI [44] was > 100 µM and the TGI [45] was > 100 µM. The TGI [46] was > 100 µM, the TGI [47] was > 100 µM and the TGI [49] was > 100 µM. The TGI [65] was > 100 µM, the TGI [50] was > 100 µM and the TGI [51] was > 100 µM. For the same compound, the TGI [52] was > 100 µM, the TGI [53] was > 100 µM and the TGI [54] was > 100 µM. For the same compound, the TGI [55] was > 100 µM and the TGI [67] was > 100 µM.
